Data: patent US20240307283A1, “COMPOSITIONS AND METHODS FOR DECREASING PIGMENTATION” (The General Hospital Corporation, priority 2021, published 2024)

Legend:
[1] = tested on: zebrafish melanocytes; test: Chemical treatment of zebrafish, melanocytic brightness; format: in vivo; conditions: 24 hours, 100 μM 2,3BD or 50 μM DCC
Description: Wildtype Tübingen zebrafish were placed in a 24 well plate at 72 hours post-fertilization, with 10 larvae per well for a total twenty larvae per condition. Larvae were treated for 24 hours with either 2,3BD (1 μM, 10 μM, 100 μM, 1 mM; Sigma Aldrich, #B85307), DCC (1 μM, 10 μM, 50 μM, 100 μM; Sigma Aldrich, #D80002), or DMSO (1:500) in E3 embryo medium. At 4 days post fertilization, larvae were imaged using a Nikon SMZ18 Stereomicroscope. Melanocytes from at least 5 zebrafish embryos of each group for each experiment were analyzed using the FIJI software enabling pixel-based color quantification.

[2] = tested on: murine Melan-A cells; test: Melanin content of Melan-A cells with NNT inhibitors; format: cell-based, mouse; conditions: 2 mM, FIG. 3A
Description: Murine Melan-A (Bennett et al., 1987) cells were obtained from the Wellcome Trust Functional Genomics Cell Bank. Melan-A cells were grown in RPMI 1640 supplemented with 10% FBS or FetalPlex (Gemini Bio-Products, #100-602), 100,000 U/L penicillin, 100 mg/L streptomycin sulphate, 100× Glutamax, and 200 nM TPA.
In vitro culture with NNT inhibitors: 2,3-Butanedione 97% (2,3 BD) (Sigma Aldrich, #B85307) (1 μM, 10 μM, 100 μM, 2 mM), N,N-Dicyclohexylcarbodiimide (DCC) (Sigma Aldrich, #D80002) (1 mM, 2 mM, 10 mM), and Palmitoyl coenzyme A lithium salt (Sigma Aldrich, #P9716) (10 μM, 2 mM) were reconstituted with DMSO (American Type Culture Collection, 4-X).
Melanin quantification: Equal numbers of cells were plated in 6-well plates. The cells were then harvested 72-96 hours post siRNA or NNT inhibitors compounds, as indicated in the legends, pelleted, washed in PBS and counted. 10^6 cells were used for measurement of protein concentration with the Pierce BCA protein assay (Thermo Fisher Scientific, #23225) and 10^6 cells were resuspended in 60 μl of 1 N NaOH solution and incubated at 60° C. for 2 h or until the melanin was completely dissolved. After cooling down to room temperature, samples were centrifuged at 500×g for 10 min and the supernatants were loaded onto a 96-well plate. The melanin content was determined by measuring the absorbance at 405 nm on an Envision plate reader, compared with a melanin standard (0 to 50 μg/ml; Sigma Aldrich, #M8631). Melanin content was expressed as micrograms per milligram of protein.

[3] = biological target: T1, NNT (Homo sapiens, UniProt Q13423); test: GSH/GSSG ratio (indirect endpoint of NNT enzyme activity) in primary melanocytes; format: cell-based; set-up: endogenous in cells; host or cells: primary human melanocytes (isolated from neonatal foreskins); conditions: different doses, 24 hours
T1 sequence (Q13423 44-1086): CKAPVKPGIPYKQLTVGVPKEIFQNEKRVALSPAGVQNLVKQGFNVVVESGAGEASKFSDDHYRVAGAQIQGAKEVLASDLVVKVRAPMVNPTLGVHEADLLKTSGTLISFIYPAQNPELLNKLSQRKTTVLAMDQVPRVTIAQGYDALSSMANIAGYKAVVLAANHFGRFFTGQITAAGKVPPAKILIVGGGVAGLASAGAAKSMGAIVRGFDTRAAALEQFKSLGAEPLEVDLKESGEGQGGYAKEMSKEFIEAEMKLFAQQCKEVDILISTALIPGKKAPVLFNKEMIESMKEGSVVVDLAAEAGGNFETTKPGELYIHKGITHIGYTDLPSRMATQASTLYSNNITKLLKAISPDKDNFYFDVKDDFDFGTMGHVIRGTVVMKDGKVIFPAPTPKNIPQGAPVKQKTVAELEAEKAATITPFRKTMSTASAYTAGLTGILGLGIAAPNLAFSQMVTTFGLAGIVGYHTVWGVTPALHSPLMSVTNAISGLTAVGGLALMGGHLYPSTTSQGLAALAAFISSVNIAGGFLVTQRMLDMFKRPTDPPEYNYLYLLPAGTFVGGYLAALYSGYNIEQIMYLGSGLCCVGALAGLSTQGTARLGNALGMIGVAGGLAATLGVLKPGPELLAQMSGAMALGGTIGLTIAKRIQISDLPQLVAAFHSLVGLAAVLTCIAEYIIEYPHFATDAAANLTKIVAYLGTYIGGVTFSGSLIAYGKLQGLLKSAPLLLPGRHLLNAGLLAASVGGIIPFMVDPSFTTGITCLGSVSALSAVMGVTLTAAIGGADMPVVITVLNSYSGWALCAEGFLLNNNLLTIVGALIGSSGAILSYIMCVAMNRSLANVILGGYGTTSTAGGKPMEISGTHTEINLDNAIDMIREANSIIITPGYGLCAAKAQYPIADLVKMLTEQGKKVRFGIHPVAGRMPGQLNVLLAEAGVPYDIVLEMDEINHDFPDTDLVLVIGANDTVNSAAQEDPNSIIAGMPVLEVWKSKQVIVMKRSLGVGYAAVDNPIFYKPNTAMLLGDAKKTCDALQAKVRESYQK
Description: Glutathione measurements: Cell lysates were prepared from equal numbers of cells after 24 h of DCC or 2,3BD treatment, following the manufacturer's protocols. Seventy-two h post siRNA treatment or overexpression of NNT and their corresponding controls, glutathione levels were determined using the GSH/GSSG-Glo assay (Promega, #V6611) and luminescence was measured using an EnVision 2104 Multilabel Reader (PerkinElmer).

With `CC(=O)C(C)=O` [2,3BD, 2,3-Butanedione] the “darkening of zebrafish embryos (melanocytic brightness)” value [1] was “significant darkening”, the melanin content [2] was “increased melanin content” and the GSH/GSSG ratio [3] was “decreased GSH/GSSG ratios”.
